Results: patent publication US9855268B2, “Triazolo[4,5-d]pyrimidine derivatives” (Merck Patent GmbH, priority 2013, dated 2018)

Columns and labels:
[1] = target: T1, GCN2 (Homo sapiens, UniProt Q9P2K8); test: GCN2 enzyme assay (TR-FRET Lanthascreen, GFP-eIF2alpha phosphorylation); assay type: biochemical; conditions: 10 μM ATP, 80 nM GFP-eIF2a, 30 nM GCN2
Summary of the method: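 Phosphorylation of GFP-eIF2alpha (80 nM) by GCN2 run at room temperature with 10 μM ATP. After EDTA quench, product quantified by Lanthascreen TR-FRET (antibody–GFP complex, 340 nm excitation).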
Target sequence in this assay (Q9P2K8 whole entry, species assumed): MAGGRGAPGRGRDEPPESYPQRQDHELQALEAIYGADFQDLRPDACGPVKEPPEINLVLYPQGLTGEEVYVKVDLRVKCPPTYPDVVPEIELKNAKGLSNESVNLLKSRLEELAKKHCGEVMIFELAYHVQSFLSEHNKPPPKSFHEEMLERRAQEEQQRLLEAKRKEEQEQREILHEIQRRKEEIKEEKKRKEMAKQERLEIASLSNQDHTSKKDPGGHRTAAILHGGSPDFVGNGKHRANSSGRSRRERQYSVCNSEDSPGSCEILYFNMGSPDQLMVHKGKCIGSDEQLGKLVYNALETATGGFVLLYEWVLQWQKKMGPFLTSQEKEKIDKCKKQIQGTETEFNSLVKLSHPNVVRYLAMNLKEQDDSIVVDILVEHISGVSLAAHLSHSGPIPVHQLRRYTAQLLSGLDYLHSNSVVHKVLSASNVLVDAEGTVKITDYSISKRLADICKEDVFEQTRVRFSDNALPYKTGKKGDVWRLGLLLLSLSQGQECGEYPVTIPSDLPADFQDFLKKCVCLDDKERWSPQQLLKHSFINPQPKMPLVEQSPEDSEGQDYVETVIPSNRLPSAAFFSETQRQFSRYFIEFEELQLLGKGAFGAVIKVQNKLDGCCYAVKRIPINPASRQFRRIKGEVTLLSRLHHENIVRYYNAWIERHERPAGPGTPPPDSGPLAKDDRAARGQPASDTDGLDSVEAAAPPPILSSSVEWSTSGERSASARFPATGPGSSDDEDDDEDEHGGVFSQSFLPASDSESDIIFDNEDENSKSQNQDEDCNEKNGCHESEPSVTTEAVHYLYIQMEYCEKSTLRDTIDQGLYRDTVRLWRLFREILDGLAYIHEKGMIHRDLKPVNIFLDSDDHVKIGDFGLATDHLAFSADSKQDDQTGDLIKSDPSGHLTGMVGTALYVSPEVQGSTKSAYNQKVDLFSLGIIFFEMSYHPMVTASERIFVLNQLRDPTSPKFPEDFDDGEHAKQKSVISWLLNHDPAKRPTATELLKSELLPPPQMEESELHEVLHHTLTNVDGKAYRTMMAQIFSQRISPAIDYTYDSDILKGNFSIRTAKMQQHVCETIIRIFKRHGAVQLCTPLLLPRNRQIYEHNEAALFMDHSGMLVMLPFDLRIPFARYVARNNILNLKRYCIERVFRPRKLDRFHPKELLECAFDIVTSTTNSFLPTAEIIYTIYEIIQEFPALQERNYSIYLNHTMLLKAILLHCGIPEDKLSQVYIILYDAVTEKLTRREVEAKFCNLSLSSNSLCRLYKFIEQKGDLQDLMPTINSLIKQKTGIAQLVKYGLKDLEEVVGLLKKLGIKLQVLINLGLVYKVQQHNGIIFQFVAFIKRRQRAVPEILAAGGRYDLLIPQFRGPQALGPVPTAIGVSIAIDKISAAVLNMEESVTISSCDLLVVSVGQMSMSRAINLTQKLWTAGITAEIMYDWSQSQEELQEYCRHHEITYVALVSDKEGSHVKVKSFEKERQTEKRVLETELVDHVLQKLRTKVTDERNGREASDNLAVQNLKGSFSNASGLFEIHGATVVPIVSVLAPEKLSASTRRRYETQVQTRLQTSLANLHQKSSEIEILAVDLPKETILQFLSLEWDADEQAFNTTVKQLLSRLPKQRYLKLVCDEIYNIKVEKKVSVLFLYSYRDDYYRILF

[2] = target: T1, GCN2; test: Cellular assay of GCN2 activity (phospho-eIF2alpha immunocytochemistry after tryptophanol); assay type: cell-based; set-up: endogenous in cells; host or cells: U2OS; conditions: Human U2OS cells, 2 h compound, 600 μM tryptophanol 30 min
Summary of the method: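 Readout in human U2OS cells: compound pretreatment 2 h, then tryptophanol (600 μM final) for 30 min to trigger GCN2 signalling. Fixed, permeabilised cells quantified by immunocytochemistry for phosphorylation, normalised to DMSO controls as % effect; IC50 from concentration-response.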
Target sequence in this assay (Q9P2K8 whole entry): as the sequence (Q9P2K8 whole entry, species assumed) above

[3] = target: GSK3α(h) (Homo sapiens, UniProt P49840); test: GSK3α radiometric kinase assay (33P-ATP, phospho GS2 peptide); assay type: biochemical; conditions: read-out: IC50 GSK3α (enzyme assay)
GSK3α(h), sequence (P49840 whole entry): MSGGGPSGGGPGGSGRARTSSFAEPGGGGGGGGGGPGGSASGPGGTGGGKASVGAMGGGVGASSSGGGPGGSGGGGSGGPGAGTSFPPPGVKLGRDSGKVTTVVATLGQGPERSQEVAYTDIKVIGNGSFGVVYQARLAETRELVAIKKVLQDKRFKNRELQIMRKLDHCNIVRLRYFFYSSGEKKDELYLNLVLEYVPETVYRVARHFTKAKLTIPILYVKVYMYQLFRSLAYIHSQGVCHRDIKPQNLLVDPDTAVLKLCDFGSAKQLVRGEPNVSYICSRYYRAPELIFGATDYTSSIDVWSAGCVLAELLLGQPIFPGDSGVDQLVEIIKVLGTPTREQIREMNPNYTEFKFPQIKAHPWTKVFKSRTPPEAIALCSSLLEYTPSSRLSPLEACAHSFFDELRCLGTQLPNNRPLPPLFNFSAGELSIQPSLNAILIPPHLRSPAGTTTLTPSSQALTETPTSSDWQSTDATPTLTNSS
Summary of the method: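 Human GSK3α incubated with 20 μM phospho-GS2 peptide in 8 mM MOPS pH 7,0, 10 mM Mg-acetate and [γ-33P]ATP (concentration as required), started with MgATP. After 40 minutes at room temperature, stopped with phosphoric acid; 33P incorporation measured by filtermat spotting and scintillation counting.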

[4] = target: GSK3β(h) (Homo sapiens, UniProt P49841); test: GSK3β radiometric kinase assay (33P-ATP, phospho GS2 peptide); assay type: biochemical; conditions: read-out: IC50 GSK3β (enzyme assay)
GSK3β(h), sequence (P49841 whole entry): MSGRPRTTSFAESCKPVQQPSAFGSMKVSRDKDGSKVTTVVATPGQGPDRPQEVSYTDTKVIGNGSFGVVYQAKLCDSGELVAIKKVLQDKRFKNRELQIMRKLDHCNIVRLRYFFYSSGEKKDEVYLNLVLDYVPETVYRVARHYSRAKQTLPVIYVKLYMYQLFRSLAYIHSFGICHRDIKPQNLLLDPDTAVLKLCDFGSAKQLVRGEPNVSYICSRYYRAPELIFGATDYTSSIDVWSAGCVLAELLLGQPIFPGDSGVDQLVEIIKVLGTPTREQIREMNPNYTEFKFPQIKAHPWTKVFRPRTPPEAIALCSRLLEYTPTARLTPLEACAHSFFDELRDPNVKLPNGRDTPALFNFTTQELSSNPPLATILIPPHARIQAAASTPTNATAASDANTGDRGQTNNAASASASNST
Summary of the method: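 Human GSK3β in 8 mM MOPS pH 7,0, 0,2 mM EDTA, 10 mM Mg-acetate with 20 μM phospho-GS2 peptide; the reaction was started with [γ-33P]MgATP at an unstated level. After 40 min at room temperature it was stopped with phosphoric acid, and the peptide was captured on P30 filtermat for scintillation counting.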

Structure (SMILES) | IC50 [1] [nM] | IC50 [2] [nM] | IC50 [3] [nM] | IC50 [4] [nM]
NC(=O)[C@@H]1CC[C@@H](Nc2ncc3nnn(-c4ccc(OCCN5CCOCC5)cc4)c3n2)C1 [A277, (1R,3R)-3-{3-[4-(2-morpholin-4-yl-ethoxy)-phenyl]-3H-[1,2,3]triazolo[4,5-d]pyrimidin-5-ylamino}-cyclopentanecarboxylic acid amide] | < 1000 | 5000 to 10000 | < 1000 | < 1000
CC(C)(CCO)Oc1ccc(-n2nnc3cnc(N[C@@H]4CC[C@@H](C(N)=O)C4)nc32)cc1 [A278, (1R,3R)-3-{3-[4-(3-hydroxy-1,1-dimethyl-propoxy)-phenyl]-3H-[1,2,3]triazolo[4,5-d]pyrimidin-5-ylamino}-cyclopentanecarboxylic acid amide] | < 1000 | 1000 to 5000 | < 1000 | < 1000
CCOc1ccc(-n2nnc3cnc(N[C@@H]4CC[C@@H](C(=O)NNC(C)=O)C4)nc32)cc1 [A280, (1R,3R)-3-[3-(4-ethoxy-phenyl)-3H-[1,2,3]triazolo[4,5-d]pyrimidin-5-ylamino]-cyclopentanecarboxylic acid N′-acetyl-hydrazide] | < 1000 | 1000 to 5000 | < 1000 | < 1000
CCOc1ccc(-n2nnc3cnc(N[C@@H]4CC[C@@H](C(=O)NN)C4)nc32)cc1 [A282, (1R,3R)-3-[3-(4-ethoxy-phenyl)-3H-[1,2,3]triazolo[4,5-d]pyrimidin-5-ylamino]-cyclopentanecarboxylic acid hydrazide] | < 1000 | 1000 to 5000 | < 1000 | < 1000
